Test results from ChEMBL document CHEMBL1127377, “2-Substitution of N6-benzyladenosine-5'-uronamides enhances selectivity for A3 adenosine receptors” (J Med Chem, 1994).

Key:
Adenosine receptor A1 = molecular target: T1, Adenosine receptor A1 (Rattus norvegicus, UniProt P25099)
T1 sequence (P25099 whole entry): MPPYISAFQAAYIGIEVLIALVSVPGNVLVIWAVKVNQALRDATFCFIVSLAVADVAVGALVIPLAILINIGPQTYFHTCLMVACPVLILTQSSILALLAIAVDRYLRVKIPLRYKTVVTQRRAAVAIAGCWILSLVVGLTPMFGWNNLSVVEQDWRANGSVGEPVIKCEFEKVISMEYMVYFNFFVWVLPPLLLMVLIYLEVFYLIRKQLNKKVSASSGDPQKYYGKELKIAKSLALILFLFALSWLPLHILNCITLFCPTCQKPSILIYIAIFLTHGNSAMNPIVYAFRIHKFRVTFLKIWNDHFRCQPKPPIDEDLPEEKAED
Description: Tested for the binding affinity of A1 receptor by displacing the [3H]-PIA in rat brain membranes

Adenosine receptor A2a = Adenosine receptor A2a (Rattus norvegicus, UniProt P30543)
Adenosine receptor A3 = molecular target: T2, Adenosine receptor A3 (Rattus norvegicus, UniProt P28647); experiment: biochemical
T2 sequence (P28647 whole entry): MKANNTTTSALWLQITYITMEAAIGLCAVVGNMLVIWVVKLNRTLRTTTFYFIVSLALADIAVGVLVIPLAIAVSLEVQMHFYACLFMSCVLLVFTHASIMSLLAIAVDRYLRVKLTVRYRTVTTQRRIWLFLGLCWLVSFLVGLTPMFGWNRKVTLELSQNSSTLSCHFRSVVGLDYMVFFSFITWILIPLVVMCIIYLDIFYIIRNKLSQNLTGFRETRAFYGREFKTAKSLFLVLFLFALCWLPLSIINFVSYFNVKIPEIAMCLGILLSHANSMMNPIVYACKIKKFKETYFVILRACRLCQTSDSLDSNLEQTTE
Description: Tested for the binding affinity of A3 receptor by displacing N6-[[125I]-4-amino-3-iodobenzyl]-adenosine-5''-N-methyluronamide from membranes of CHO cells transfected with rat A3-cDNA

Chain of Adenosine receptor A2a (P30543 whole entry): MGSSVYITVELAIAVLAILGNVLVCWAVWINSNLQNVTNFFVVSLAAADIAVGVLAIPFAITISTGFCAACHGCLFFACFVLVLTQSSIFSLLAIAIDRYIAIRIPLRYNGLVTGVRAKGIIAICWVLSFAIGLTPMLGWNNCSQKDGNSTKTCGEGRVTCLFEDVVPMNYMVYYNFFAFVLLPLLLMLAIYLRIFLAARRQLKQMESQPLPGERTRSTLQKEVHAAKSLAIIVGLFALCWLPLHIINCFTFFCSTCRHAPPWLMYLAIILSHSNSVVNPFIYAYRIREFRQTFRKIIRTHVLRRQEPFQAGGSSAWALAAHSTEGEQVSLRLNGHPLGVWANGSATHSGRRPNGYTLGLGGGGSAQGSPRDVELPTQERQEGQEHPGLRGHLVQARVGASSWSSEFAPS

| Structure (SMILES) | Ki (Adenosine receptor A1) [nM] | Ki (Adenosine receptor A2a) [nM] | Ki (Adenosine receptor A3) [nM] |
| --- | --- | --- | --- |
| Nc1ccc(CCNc2ncnc3c2ncn3[C@@H]2O[C@H](CO)[C@@H](O)[C@H]2O)cc1 | 14 | – | – |
| CNC(=O)[C@H]1O[C@@H](n2cnc3c(NCc4ccc(N)c(I)c4)ncnc32)[C@H](O)[C@@H]1O | – | 197 | – |
| Nc1ccc(CCNc2ncnc3c2ncn3C2O[C@H](CO)[C@@H](O)[C@H]2O)cc1I (stereo not given in full) | 2.1 | – | 15.5 |
| OC[C@H]1O[C@@H](n2cnc3c(NC4CCCC4)ncnc32)[C@H](O)[C@@H]1O [N6-CYCLOPENTYLADENOSINE] | – | 462 | – |
